# Laboratory results from US12517131B2, “Methods for labeling eukaryotic cells from a multicellular organism as well as for treating and/or diagnosing a cancer using modified monosaccharide compounds” (DIAMIDEX, priority 2019, dated 2026).
# “And” between values parts separate entries of the source, which are not always exact repeats. Equal entries are not always repeated.
# Key:
# [1] = test system: PANC (vs HPNE); test: Labeling of cancer and non-cancer cells, fluorescence signal ratio; format: cell-based, human; details: PANC (32 h) vs HPNE (32 h); Ara-N3 10 mM; FBS 10%; one doubling time
# Experimental: (§1) The fluorescence Assimilation of Ara-N3 probes was visualized by copper-free click chemistry using sulfo-DBCO-biotin (1 mM), followed by labeling with a mouse anti-biotin Alexa Fluor 488 antibody conjugate (0.62 mg/ml stock, Jackson ImmunoResearch, dilution 1/10). The click reaction was carry-out as following: At 24 h incubation times, the culture mediums were removed, and attached cells were washed twice with PBS. Cells were detached with Tryp-LE, washed twice with PBS, and centrifuged at 13000 g for 2 min. The cellular pellets were resuspended with 10 μL of sulfo-DBCO-biotin and incubated 30 min in the dark, and at 37 C°. Then, cells were washed twice with PBS, centrifuged, and cellular pellets were resuspended with 10 μL of a mouse anti-biotin antibody solution, before to be incubated at room temperature in dark. Thereafter, cells were washed twice with PBS and small cellular suspension spots (5 μL) were put in Polysine® adhesion slides (VWR international S.A.S), in the dark room, until dry (20 min). The spots were fixed with 4% paraformaldehyde during 20 min, in dark and room temperature. Slides were then washed twice with PBS, before recovering with square cover glasses (VWR international S.A.S) using glycerol Mounting Medium (Dako) and stored at 4° C. in dark room.
# (§2) The fluorescence acquisition was recorded using Olympus Microscopy IX83 (Olympus Life Science) equipped with a 60×/1.3 […]/1.4 SRI (silicone refractive index) objective, and Hamamatsu oreca flash 4 LT camera with 109 nm/pixel calibrated pixel size. The excitation light was emitted by X-CITE 120LED using the AT180/30X excited filter and signal was monitored using AT535/40m emission filter. Green light exposition time was 600 ms and white light exposition time was determined by DIC methods at […]. The acquisition area size analyzed by the Celisens dimension V1.16 software was different depending on the cell number containing in the spot.
# (§3) The images were processed using count and measure unit of the Cellsens dimension V1.16 software. The background noise was deleted as follows: ROI were first defined on the background of the image and the average pixel intensity was calculated. The value thus obtained was subtracted from all pixels of the image. The fluorescence intensity of each cell was determined from a threshold set at a value of 3030. All pixels that have intensity below 3030 were not counted.
# (§4) The same experiments as in example 2 with other cancer and corresponding non cancer cells were performed. The culture media were adapted to the tested cells and supplemented by 10% fetal bovine serum (FBS). Ara-N3 probe (10 mM) was added to culture media with FBS concentration (10%). The incubation times corresponded to one doubling time or twice doubling time of the tested cells (see table below).
# (§5) The fluorescence signal cancer/non cancer ratios were calculated based on fluorescence intensities obtained with Ara-N3 tested on cancer and corresponding non cancer cells.
# [2] = test system: KCL22 (vs Lymphocytes); test: as above; format: cell-based, human; details: KCL22 (24 h) vs Lymphocytes (24 h); Ara-N3 10 mM; FBS 10%; one doubling time
# Experimental: as §1, §2, §3, §4, §5
# [3] = test system: human uroepithelial cells (SV-HUC-1); test: Labeling of bladder cells with Ara-N3 probe, copper-free click, fluorescence microscopy; format: cell-based; details: 24 h, Ara-N3 10 mM
# Experimental: (§6) The human uroepithelial cells (SV-HUC-1) and the human urinary bladder carcinoma (T24) were purchased from ATCC (Manassas, Van USA). These cell lines were grown in RPMI 1640 with Glutamine 1 medium (Lonza Biowhttaker) supplemented by 10% fetal bovine serum (FBS) (VWR international S.A.S). The culture medium was changed every two days. The passaging of cells was performed using Tryp-LE express 1× (Gibco). The cell viability was estimated using trypan blue exclusion tests.
# (§7) SV-HUC-1 and T24 cells were seeded in 24-well plates, at density of 5*10^4 cells/well. Then, cells were incubated at 37° C., 5% in CO2 during 24 hours. Thereafter, the culture medium of each well was discarded, and attached cells were washed twice with Phosphate Buffer Salin (PBS) (Lonza Biowhittaker), before to be exposed to Ara-N3 probe (10 mM). Probe was added to culture medium with different FBS concentrations (3% and 10%). Then, cells were incubated at 37° C., 5% in CO2 for 24 hours again. The control cells were cultured using culture medium supplemented with 5% or 10% FBS, without addition of Ara-N3.
# as §1, §2, §3
# [4] = test system: human urinary bladder carcinoma (T24); test: as above; format: cell-based; details: 24 h, Ara-N3 10 mM
# Experimental: as §6, §7, §1, §2, §3
compound,measurement,setting,value
"[N-]=[N+]=NC[C@H]1OC(O)[C@@H](O)[C@@H]1O (stereo partly drawn) [Ara-N3, 5-azido-5-deoxy-D-arabinofuranose]",Cancer/Non Cancer Ratio (fluorescence signal),[1],1.8
same,Cancer/Non Cancer Ratio (fluorescence signal),[2],4.9
same,"labelled cells %, SV-HUC1 %","[3]; Intensity/μm^2 0-50000, FBS 3%, n = 239",62.34%
same,"labelled cells %, SV-HUC1 %","[3]; Intensity/μm^2 0-50,000, FBS 10%, n = 301",73.45%
same,"labelled cells %, SV-HUC1 %","[3]; Intensity/μm^2 50,000-100,000, FBS 3%, n = 239",2.51%
same,"labelled cells %, SV-HUC1 %","[3]; Intensity/μm^2 50,000-100,000, FBS 10%, n = 301",4.32%
same,"labelled cells %, SV-HUC1 %","[3]; Intensity/μm^2 100,000-150,000, FBS 3%, n = 239",2.09%
same,"labelled cells %, SV-HUC1 %","[3]; Intensity/μm^2 100,000-150,000, FBS 10%, n = 301",1.66%
same,"labelled cells %, SV-HUC1 %","[3]; Intensity/μm^2 150,000-200,000, FBS 3%, n = 239",1.26%
same,"labelled cells %, SV-HUC1 %","[3]; Intensity/μm^2 150,000-200,000, FBS 10%, n = 301",1.33%
same,"labelled cells %, SV-HUC1 %","[3]; Intensity/μm^2 200,000-250,000, FBS 3%, n = 239",1.67%
same,"labelled cells %, SV-HUC1 %","[3]; Intensity/μm^2 200,000-250,000, FBS 10%, n = 301",0.66%
same,"labelled cells %, SV-HUC1 %","[3]; Intensity/μm^2 250,000-300,000, FBS 3%, n = 239",3.77%
same,"labelled cells %, SV-HUC1 %","[3]; Intensity/μm^2 250,000-300,000, FBS 10%, n = 301",0.66%
same,"labelled cells %, SV-HUC1 %","[3]; Intensity/μm^2 300,000-350,000, FBS 3%, n = 239",0.42%
same,"labelled cells %, SV-HUC1 %","[3]; Intensity/μm^2 300,000-350,000, FBS 10%, n = 301",0.33%
same,"labelled cells %, SV-HUC1 %","[3]; Intensity/μm^2 350,000-400,000, FBS 3%, n = 239",0.42%
same,"labelled cells %, SV-HUC1 %","[3]; Intensity/μm^2 350,000-400,000, FBS 10%, n = 301",0.66%
same,"labelled cells %, SV-HUC1 %","[3]; Intensity/μm^2 400,000-450,000, FBS 3%, n = 239",0.84%
same,"labelled cells %, SV-HUC1 %","[3]; Intensity/μm^2 400,000-450,000, FBS 10%, n = 301",0.66%
same,"labelled cells %, SV-HUC1 %","[3]; Intensity/μm^2 450,000-500,000, FBS 3%, n = 239",2.93%
same,"labelled cells %, SV-HUC1 %","[3]; Intensity/μm^2 450,000-500,000, FBS 10%, n = 301",1.33%
same,"labelled cells %, SV-HUC1 %","[3]; Intensity/μm^2 >500,000, FBS 3%, n = 239",21.76%
same,"labelled cells %, SV-HUC1 %","[3]; Intensity/μm^2 >500,000, FBS 10%, n = 301",14.62%
same,"labelled cells %, T24 %","[4]; Intensity/μm^2 0-50000, FBS 3%, n = 226",2.21%
same,"labelled cells %, T24 %","[4]; Intensity/μm^2 0-50,000, FBS 10%, n = 282",1.42%
same,"labelled cells %, T24 %","[4]; Intensity/μm^2 50,000-100,000, FBS 3%, n = 226",2.65%
same,"labelled cells %, T24 %","[4]; Intensity/μm^2 50,000-100,000, FBS 10%, n = 282",2.13%
same,"labelled cells %, T24 %","[4]; Intensity/μm^2 100,000-150,000, FBS 3%, n = 226",2.65%
same,"labelled cells %, T24 %","[4]; Intensity/μm^2 100,000-150,000, FBS 10%, n = 282",2.48%
same,"labelled cells %, T24 %","[4]; Intensity/μm^2 150,000-200,000, FBS 3%, n = 226",5.75%
same,"labelled cells %, T24 %","[4]; Intensity/μm^2 150,000-200,000, FBS 10%, n = 282",1.42%
same,"labelled cells %, T24 %","[4]; Intensity/μm^2 200,000-250,000, FBS 3%, n = 226",3.98%
same,"labelled cells %, T24 %","[4]; Intensity/μm^2 200,000-250,000, FBS 10%, n = 282",2.13%
same,"labelled cells %, T24 %","[4]; Intensity/μm^2 250,000-300,000, FBS 3%, n = 226",3.54%
same,"labelled cells %, T24 %","[4]; Intensity/μm^2 250,000-300,000, FBS 10%, n = 282",1.42%
same,"labelled cells %, T24 %","[4]; Intensity/μm^2 300,000-350,000, FBS 3%, n = 226",2.21%
same,"labelled cells %, T24 %","[4]; Intensity/μm^2 300,000-350,000, FBS 10%, n = 282",1.77%
same,"labelled cells %, T24 %","[4]; Intensity/μm^2 350,000-400,000, FBS 3%, n = 226",3.98%
same,"labelled cells %, T24 %","[4]; Intensity/μm^2 350,000-400,000, FBS 10%, n = 282",2.48%
same,"labelled cells %, T24 %","[4]; Intensity/μm^2 400,000-450,000, FBS 3%, n = 226",2.65%
same,"labelled cells %, T24 %","[4]; Intensity/μm^2 400,000-450,000, FBS 10%, n = 282",3.19%
same,"labelled cells %, T24 %","[4]; Intensity/μm^2 450,000-500,000, FBS 3%, n = 226",3.54%
same,"labelled cells %, T24 %","[4]; Intensity/μm^2 450,000-500,000, FBS 10%, n = 282",2.13%
same,"labelled cells %, T24 %","[4]; Intensity/μm^2 >500,000, FBS 3%, n = 226",66.81%
same,"labelled cells %, T24 %","[4]; Intensity/μm^2 >500,000, FBS 10%, n = 282",79.42% and 79.43%
